One assay concerns HEK293 cells. The experiment in a line: HEK293 viability assay (ATPlite 1step). Type of assay: cell-based, human. To be noted: non-transfected HEK293, 24 h, ATP level; Trial 2; Low = activity too low for exact value. How it is done:
The non-transfected HEK293 cells were seeded to the 384-well plates at 5000 cell/well, compounds were added and the timing of all subsequent steps was exactly the same as in the reporter assays. […] After 24 h of compound incubation with cells, the viability of cells was measured by determining the ATP level in the samples using luciferase cell viability assay, ATPlite 1step (Perkin Elmer, USA).
For orientation: Cellular ATP, detected with luciferase, serves as a proxy for viable cell number.

For a further assay, the target named is T1, Human full-length GR (Homo sapiens, UniProt P04150).
T1 sequence (P04150 1-777): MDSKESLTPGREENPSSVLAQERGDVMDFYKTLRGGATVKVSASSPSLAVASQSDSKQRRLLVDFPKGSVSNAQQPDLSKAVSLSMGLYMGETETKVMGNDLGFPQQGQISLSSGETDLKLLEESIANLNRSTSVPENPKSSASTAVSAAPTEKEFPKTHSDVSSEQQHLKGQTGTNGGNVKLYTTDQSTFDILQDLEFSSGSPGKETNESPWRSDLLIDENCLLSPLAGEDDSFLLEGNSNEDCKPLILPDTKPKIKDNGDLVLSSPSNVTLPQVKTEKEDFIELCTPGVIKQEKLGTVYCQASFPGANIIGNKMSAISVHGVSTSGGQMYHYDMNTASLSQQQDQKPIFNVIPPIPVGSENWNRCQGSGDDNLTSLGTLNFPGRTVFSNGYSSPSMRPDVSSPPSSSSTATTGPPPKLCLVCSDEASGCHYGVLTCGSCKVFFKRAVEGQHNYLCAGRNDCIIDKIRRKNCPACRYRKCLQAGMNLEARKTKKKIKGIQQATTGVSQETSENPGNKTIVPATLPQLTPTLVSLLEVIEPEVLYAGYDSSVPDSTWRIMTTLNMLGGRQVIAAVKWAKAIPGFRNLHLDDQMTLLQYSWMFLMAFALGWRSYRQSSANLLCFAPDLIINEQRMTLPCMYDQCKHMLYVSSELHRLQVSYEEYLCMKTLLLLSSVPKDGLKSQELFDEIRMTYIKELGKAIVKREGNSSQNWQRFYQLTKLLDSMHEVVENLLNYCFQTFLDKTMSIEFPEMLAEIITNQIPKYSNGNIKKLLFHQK
As to the kind of experiment: GR cell-based luciferase reporter assay, agonist and antagonist mode. Particulars: U2OS stable reporter cells; antagonist mode with 10 nM dexamethasone; concentration range tested 100 μM to 100 μM (so in the source). On the technique in general: A reporter such as luciferase makes a cellular process visible.

For a further assay, the target named is T2, Human full-length ERβ (Homo sapiens, UniProt Q92731).
T2 construct: expression vector encoding human full-length ERα or ERβ; expressed in transfected cells; host or cells: HEK293, transiently transfected
As to the kind of experiment: ERβ cell-based luciferase reporter assay, agonist mode. How it is done: (§1) The selectivity and potency of the various compounds was carried out via in vitro testing in ERα and ERβ cell-based reporter assays. The activity of the selected compounds was determined in the cell-based reporter assays in HEK293 cells.
(§2) The HEK293 cells were propagated in a monolayer in phenol red-free DMEM supplemented with 10% fetal bovine serum, 2 mM Glutamax and penicillin/streptomycin (Thermo Fisher Scientific, MA, USA) and incubated in a 5% CO2 humidified atmosphere at 37° C. Right before transfection, the growth medium was changed to phenol red-free DMEM supplemented with 4% HyClone Fetal Bovine Serum, Charcoal/Dextran Treated (GE Healthcare Life Sciences, USA) and 2 mM Glutamax (starvation medium). The cells were transfected with the expression vector encoding human full-length ERα or ERβ and with the reporter vector containing 3 repeats of estrogen responsive elements (ERE) followed by the minimal thymidine kinase promoter from the herpes simplex virus in the pGL4 vector (Promega, USA). Luciferase served as a reporter gene. The transfection was carried out in 10 cm dishes (Nunc) in the starvation medium. After 24 hours, the cells were trypsinized, counted and seeded to cell culture treated, white, solid 1536-well plates (Corning Inc., NY, USA) at 1500 cells/well in 4 μl of total media volume. The compounds to be tested were diluted in DMSO and transferred to the cells using an acoustic dispenser Echo 520 (Labcyte). The compounds were tested at least at 12 different concentration points in the range from […] to 100 μM, in triplicates. Luciferase activity was determined after 24 hours of incubation with compounds with Britelite plus luciferase reporter gene assay reagent (Perkin Elmer, USA), according to the manufacturer protocol. The luciferase signal was measured on an Envison multimode plate reader (Perkin Elmer, USA). Data were collected and processed using an in-house built LIMS system ScreenX and GraphPad Prism software. EC50 values were calculated using a regression function (dose response, variable slope).
(§3) The selectivity and potency of various example compounds in the second library was carried out via in vitro testing in ERα and ERβ cell-based reporter assays.

The next assay concerns the target T3, Human full-length ERα (Homo sapiens, UniProt P03372).
T3 construct: expression vector encoding human full-length ERα or ERβ; expressed in transfected cells; host or cells: HEK293, transiently transfected
T3 sequence (P03372 1-595): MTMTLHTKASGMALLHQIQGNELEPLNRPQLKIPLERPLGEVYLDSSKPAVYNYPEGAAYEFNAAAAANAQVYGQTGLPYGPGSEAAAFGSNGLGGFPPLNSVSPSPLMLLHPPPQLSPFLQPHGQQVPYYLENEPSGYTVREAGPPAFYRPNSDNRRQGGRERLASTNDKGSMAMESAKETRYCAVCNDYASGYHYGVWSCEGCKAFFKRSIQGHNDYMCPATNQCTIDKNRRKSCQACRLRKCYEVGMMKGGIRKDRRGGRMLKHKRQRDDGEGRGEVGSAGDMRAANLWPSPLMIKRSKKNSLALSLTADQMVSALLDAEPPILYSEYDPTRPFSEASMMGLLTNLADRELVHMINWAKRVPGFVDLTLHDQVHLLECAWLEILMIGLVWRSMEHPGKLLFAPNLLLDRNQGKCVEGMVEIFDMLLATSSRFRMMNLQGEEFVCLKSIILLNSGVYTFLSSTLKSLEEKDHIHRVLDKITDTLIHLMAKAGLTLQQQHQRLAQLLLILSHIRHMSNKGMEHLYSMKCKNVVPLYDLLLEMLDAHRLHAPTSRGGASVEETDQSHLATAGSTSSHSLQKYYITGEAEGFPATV
The experiment in a line: ERα cell-based luciferase reporter assay, agonist mode. Particulars: for EC50: Table 8, second library, read-out: ERα agonism EC50. How it is done:
as §1, §2, §3

The next assay deals with T4, Human full-length AR (Homo sapiens, UniProt P10275).
T4 sequence (P10275 1-920): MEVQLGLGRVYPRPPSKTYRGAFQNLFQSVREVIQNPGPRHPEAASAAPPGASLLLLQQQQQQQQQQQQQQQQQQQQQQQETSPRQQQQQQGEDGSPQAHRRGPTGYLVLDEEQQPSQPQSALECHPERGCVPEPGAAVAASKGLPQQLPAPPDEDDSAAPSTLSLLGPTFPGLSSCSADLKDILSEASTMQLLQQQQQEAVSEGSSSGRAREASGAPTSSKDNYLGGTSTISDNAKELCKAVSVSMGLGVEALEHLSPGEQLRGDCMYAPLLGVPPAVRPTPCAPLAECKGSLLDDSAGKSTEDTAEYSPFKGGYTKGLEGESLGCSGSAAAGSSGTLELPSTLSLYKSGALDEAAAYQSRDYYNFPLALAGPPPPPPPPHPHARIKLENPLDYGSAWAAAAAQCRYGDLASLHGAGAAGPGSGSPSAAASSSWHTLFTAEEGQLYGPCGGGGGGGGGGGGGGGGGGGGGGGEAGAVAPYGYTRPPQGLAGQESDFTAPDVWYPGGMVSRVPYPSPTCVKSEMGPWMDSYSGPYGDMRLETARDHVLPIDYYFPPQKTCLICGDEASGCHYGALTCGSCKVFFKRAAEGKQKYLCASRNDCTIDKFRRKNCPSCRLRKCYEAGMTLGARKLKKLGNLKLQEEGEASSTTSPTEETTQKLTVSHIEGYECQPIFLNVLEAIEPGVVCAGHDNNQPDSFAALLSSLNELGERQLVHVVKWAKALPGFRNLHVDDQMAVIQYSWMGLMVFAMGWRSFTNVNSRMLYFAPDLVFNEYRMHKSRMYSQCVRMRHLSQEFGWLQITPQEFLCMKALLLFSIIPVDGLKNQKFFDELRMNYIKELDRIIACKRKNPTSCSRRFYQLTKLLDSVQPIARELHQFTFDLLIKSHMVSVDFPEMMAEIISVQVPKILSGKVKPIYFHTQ
The experiment in a line: AR cell-based luciferase reporter assay, agonist and antagonist mode. To be noted: U2OS stable reporter cells; antagonist mode with 2 nM DHT; concentration range tested 100 μM to 100 μM (so in the source).

[1] abbreviates: HEK293, 24 hours, Trial 2 (believed more reliable), low = activity detected but too low for exact value.
Setting [2] is: Table 8, second library, read-out: ERβ agonism EC50.

“And” between values parts separate entries of the source, which are not always exact repeats. Equal entries are not always repeated. Where two headings read alike, the source gives them in different places.

The text below walks through data of US20250281515A1, “CARBORANE COMPOUNDS, CARBORANE ANALOGS, AND METHODS OF USE THEREOF” (Ohio State Innovation Foundation, priority 2018, published 2025).

T2 sequence (Q92731 whole entry): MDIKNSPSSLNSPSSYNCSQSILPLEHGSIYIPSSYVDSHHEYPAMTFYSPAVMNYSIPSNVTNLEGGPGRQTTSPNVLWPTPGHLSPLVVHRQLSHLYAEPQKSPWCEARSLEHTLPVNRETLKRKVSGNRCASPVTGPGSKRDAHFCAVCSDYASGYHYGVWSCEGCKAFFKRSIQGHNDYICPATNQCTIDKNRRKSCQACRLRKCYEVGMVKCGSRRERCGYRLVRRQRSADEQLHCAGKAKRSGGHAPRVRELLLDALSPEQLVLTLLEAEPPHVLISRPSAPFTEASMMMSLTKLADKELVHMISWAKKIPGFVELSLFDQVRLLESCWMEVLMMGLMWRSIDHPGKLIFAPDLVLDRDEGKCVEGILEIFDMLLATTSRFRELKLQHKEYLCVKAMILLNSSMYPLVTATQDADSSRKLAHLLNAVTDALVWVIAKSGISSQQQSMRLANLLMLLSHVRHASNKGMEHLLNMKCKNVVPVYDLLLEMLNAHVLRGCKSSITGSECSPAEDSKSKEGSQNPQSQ

Broadly, the IC50 is the point on the concentration scale where inhibition reaches its midpoint. A lower IC50 goes with higher potency. One may read the EC50 as the concentration that produces a half-maximal response. In the case of “1-(4-hydoxyphenyl)-12-(1-hydroxyheptyl)-1,12-dicarba-closo-dodecaborane [Compound 06]”, the IC50 with HEK293 cells is 18 µM and 17 µM. For the same compound, on Human full-length GR, the “agonistic or antagonistic activities on GR” value was “no agonistic or antagonistic activities”. Besides, the “ERβ Efficacy” value at Human full-length ERβ (HEK293, 24 hours, Trial 2) is 100 and 103. The “ERβ Log(EC50)” value at Human full-length ERβ (setting [1]) was −7.71 and −7.76. Moreover, the EC50 on Human full-length ERβ (HEK293, 24 hours, Trial 2 (believed more reliable), low = activity detected but too low for exact value, read-out: ERβ EC50) was 0.019 µM and 0.017 µM; at Human full-length ERβ (text of Example 19, luciferase reporter-based cell assay in HEK cells, read-out: EC50 at ERβ), 0.005 µM.
As for `CCCCCC[C@H](O)c1ccc(-c2ccc(O)cc2)cc1` [Compound 26], the EC50 on Human full-length ERα and on Human full-length ERβ (setting [2]) was over 10 µM throughout.
As for `CCCCCC[C@H](O)C1CCC(c2ccc(O)cc2)CC1` (stereo partly drawn) [Compound 27], the EC50 at Human full-length ERα and on Human full-length ERβ (setting [2]) was over 10 µM in each case.
In the case of `CCCCCC[C@H](O)C12CCC(c3ccc(O)cc3)(CC1)CC2` [Compound 28], the results for the EC50 at Human full-length ERα and at Human full-length ERβ (setting [2]) were over 10 µM and 4.12 µM, respectively.
Regarding `CCCCCC[C@@H](O)C12CCC(c3ccc(O)cc3)(CC1)CC2` [Compound 29], the EC50 at Human full-length ERα and at Human full-length ERβ (setting [2]) was over 10 µM in each case.
Regarding `CCCCCC[C@H](O)C1C2CC3CC1CC(c1ccc(O)cc1)(C3)C2` (stereo partly drawn) [Compound 30], the EC50 on Human full-length ERα and on Human full-length ERβ (setting [2]) was over 10 µM in each case.
With `C[C@]12CC[C@@H]3c4ccc(O)cc4CC[C@H]3[C@@H]1CC[C@@H]2O` [Compound E2, Estradiol, reference compound], the “HEK293 viability IC50 (μM)” value with HEK293 cells is “Low”. Besides, at Human full-length GR, the “agonistic or antagonistic activities on GR” value is “no agonistic or antagonistic activities”.
Turning to `N#CC(Cc1ccc(O)cc1)c1ccc(O)cc1` (stereo not drawn) [DPN, Diarylpropionitrile], the “agonistic or antagonistic activities on AR” value on Human full-length AR was “no agonistic or antagonistic activities”. Also, the “HEK293 viability IC50 (μM)” value in the assay with HEK293 cells is given as “Low”. At Human full-length GR, the “agonistic or antagonistic activities on GR” value is recorded as “no agonistic or antagonistic activities”.
For `CCCc1c(-c2ccc(O)cc2)nn(-c2ccc(O)cc2)c1-c1ccc(O)cc1` [PPT, Propyl pyrazole triol, reference compound], the “ERα Efficacy” value at Human full-length ERα (HEK293, 24 hours, Trial 2) is recorded as 101. At Human full-length ERβ (setting [1]), the “ERβ EC50 (nM)” value is on record as “low” and the “ERβ Log(EC50)” value is given as “low”.
